In PMC3926802 (Molecular pharmaceutics, 2012):
Several values for one entry are separate records, joined by “and”; a condition that tells them apart may be missing. Equal entries are not always repeated. Where two headings read alike, the source gives them in different places.

Key:
[1] = cited from earlier work
[2] = Thermodynamic solubility in water for injection; type: physicochemical; conditions: for Solubility: water for injection (pH 6.4), 37 °C, 6 hours
[3] = cited from earlier work; remark: listed apart in the source
Buffer = type: physicochemical; conditions: buffer (pH 7.4), 37°C, 24 hours
[4] = In vitro transport across SCRPE; conditions: for Cumulative % transport compared with GFX, SCRPE / Fold improvement in permeability compared to GFX, SCRPE: 200 μM donor; for Cumulative % transport compared with GFX, SCRPE: no inhibitor; for Fold improvement in permeability compared to GFX, SCRPE: pH 7.4, 37 °C; for GFX levels formed in the prodrug group, SCRPE: during in vitro transport study
[5] = In vitro transport across cornea; conditions: for Cumulative % transport compared with GFX, cornea / Fold improvement in permeability compared to GFX, cornea: 200 μM donor; for Cumulative % transport compared with GFX, cornea: no inhibitor; for Fold improvement in permeability compared to GFX, cornea: pH 7.4, 37 °C; for GFX levels formed in the prodrug group, cornea: during in vitro transport study
[6] = In vivo tissue distribution and bioconversion after topical eye drop; set-up: species or system pigmented rabbits
Log D = conditions: n-octanol and PBS buffer (pH 7.4), 37 °C; mean ± SD, n = 3
[7] = In vitro transport across conjunctiva; conditions: for Cumulative % transport compared with GFX, conjunctiva / Fold improvement in permeability compared to GFX, conjunctiva: 200 μM donor; for Cumulative % transport compared with GFX, conjunctiva: no inhibitor; for Fold improvement in permeability compared to GFX, conjunctiva: pH 7.4, 37 °C; for GFX levels formed in the prodrug group, conjunctiva: during in vitro transport study
[8] = topical eye drop dosing in rabbits
[9] = MPP+ (500 μM), OCT inhibitor, versus no inhibitor
[10] = absence of OCT inhibitor MPP+, printed as compared to GFX
[11] = 1 hour after topical dose of DMAP-GFX
[12] = α-methyl-DL-tryptophan, ATB (0, +) inhibitor, versus no inhibitor

Solubility ([2]; mean ± SD, n = 3) [mg/mL] | GFX formed from prodrug (Buffer) [%] | Cumulative % transport compared with GFX, SCRPE [4] | Fold improvement in permeability compared to GFX, SCRPE [4] | GFX levels formed in the prodrug group, SCRPE [4] | Solubility [2] [mM] | Cumulative % transport compared with GFX, cornea [5] | Fold improvement in permeability compared to GFX, cornea [5] | GFX levels formed in the prodrug group, cornea [5] | Log D (pH 7.4) (Log D) | Cumulative % transport compared with GFX, conjunctiva [7] | Fold improvement in permeability compared to GFX, conjunctiva [7] | GFX levels formed in the prodrug group, conjunctiva [7] | Structure (SMILES) | also measured
 |  |  |  |  |  |  |  |  |  |  |  |  | COc1c(N2CCNC(C)C2)c(F)cc2c(=O)c(C(=O)O)cn(C3CC3)c12 (centres unmarked) [GFX, Gatifloxacin sesquihydrate] | pKa, carboxylic acid (reported) [1]: 5.94; solubility at 6 h ([2]; water for injection, pH 6.4): 2600 µg/mL and 7000 µM; Tmax in vitreous humor ([3]; single eye drop, pigmented rabbits): 60 min; Tmax, conjunctiva [3, 8]: 4.98 min; Tmax, plasma [3, 8]: 4.98 min; Tmax, tear fluid [3, 8]: 4.98 min
3.01 ± 0.2 | 8.63 |  |  |  |  |  |  |  |  |  |  |  | COc1c(N2CCNC(C)C2)c(F)cc2c(=O)c(C(=O)NCCCC(=O)O)cn(C3CC3)c12 (racemic) [CP-GFX, (±)-4-(1-cyclopropyl-6-fluoro-8-methoxy-7-(3-methylpiperazin-1-yl)-4-oxo-1,4-dihydroquinoline-3-carboxamido)butanoic acid] | Log D (pH 7.4): 0.11 ± 0.01
33.26 ± 3.0 | 9.51 | significantly higher than GFX | 1.9 fold and 1.95 fold | below the detection limits | 72 | significantly higher than GFX | 1.4 fold and 1.42 fold | below the detection limits | 0.05 ± 0.01 | significantly higher than GFX | 1.8 fold and 1.85 fold | below the detection limits | COc1c(N2CCNC(C)C2)c(F)cc2c(=O)c(C(=O)NCCCN(C)C)cn(C3CC3)c12 (racemic) [DMAP-GFX, (±)-1-cyclopropyl-N-(3-(dimethylamino)propyl)-6-fluoro-8-methoxy-7-(3-methylpiperazin-1-yl)-4-oxo-1,4-dihydroquinoline-3-carboxamide] | Cumulative % transport in the presence of MPP+, SCRPE [4, 9]: significantly lower; Permeability in the absence of inhibitor, fold higher, SCRPE [4, 10]: 2.06 fold; Fold higher solubility than CP-GFX ([2]; compared to CP-GFX (6.0 mM)): 12 fold; Fold greater solubility than GFX ([2]; compared to GFX): 12.8 fold; Cumulative % transport in the presence of MPP+, cornea [5, 9]: significantly lower; Permeability in the absence of inhibitor, fold higher, cornea [5, 10]: 1.42 fold; Formed drug (GFX) levels as % of the total drug, CRPE [6, 11]: 13%; Formed drug (GFX) levels as % of the total drug, conjunctiva [6, 11]: 70%; Formed drug (GFX) levels as % of the total drug, cornea [6, 11]: 8%; Formed drug (GFX) levels as % of the total drug, iris-ciliary body [6, 11]: 24%; Formed drug (GFX) levels as % of the total drug, retina [6, 11]: 55%; Formed drug (GFX) levels as % of the total drug, sclera [6, 11]: 29%; Formed drug (GFX) levels as % of the total drug, vitreous humor [6, 11]: 60%; Drug levels in the remaining tissues, prodrug versus drug group ([6]; 1 hour after topical eye drop, tissues other than vitreous humor and CRPE): not significantly different; Cumulative % transport in the presence of MPP+, conjunctiva [7, 9]: significantly lower
2.16 ± 0.3 | 8.97 | did not show any improvement | did not show any improvement | below the detection limits | 4 | did not show any improvement | did not show any improvement | below the detection limits | 1.04 ± 0.02 | did not show any improvement | did not show any improvement | below the detection limits | COc1c(N2CCN(C(=O)[C@@H](N)CC(C)C)C(C)C2)c(F)cc2c(=O)c(C(=O)O)cn(C3CC3)c12 (some centres unmarked) [APM-GFX] | Transport in the presence of α-methyl-DL-tryptophan, SCRPE [4, 12]: did not show any change; Transport in the presence of α-methyl-DL-tryptophan, cornea [5, 12]: did not show any change; Transport in the presence of α-methyl-DL-tryptophan, conjunctiva [7, 12]: did not show any change
